Experimental data from patent US11760756B2, “Crystalline form of a PD-1/PD-L1 inhibitor” (Incyte Corporation, priority 2020, dated 2023).

Experiments:
Format in all cases: physicochemical
[1] = Thermogravimetric Analysis (TGA), decomposition; settings: ramp from 25° C. to 300° C. at 10° C./min
Text: X-Ray Powder Diffraction (XRPD): Compound 1 crystalline forms were characterized by XRPD. The X-Ray Powder Diffraction (XRPD) was obtained from Bruker D8 Advance ECO X-ray Powder Diffractometer (XRPD) instrument. The general experimental procedures for XRPD were: (1) X-ray radiation from copper at 1.5418 Å and LYNXEYE™ detector; (2) X-ray power at 40 kV, 25 mA; and (3) the sample powder was dispersed on a zero-background sample holder. The general measurement conditions for XRPD were: Start Angle 3 degrees; Stop Angle 30 degrees; Sampling 0.015 degrees; and Scan speed 2 degree/min. Differential Scanning calorimetry (DSC): Compound 1 crystalline forms were characterized by DSC. The DSC was obtained from TA Instruments Differential Scanning calorimetry, Discovery DSC2500 with auto sampler. The DSC instrument conditions were as follows: 20-300° C. at 10° C./min; Tzero aluminum sample pan and lid; and nitrogen gas flow at 50 mL/min. Thermogravimetric Analysis (TGA): Compound 1 crystalline forms were also characterized by TGA. The TGA was obtained from TA Instruments Thermogravimetric Analyzer, Discovery TGA5500 with auto sampler. The general experimental conditions for TGA were: ramp from 25° C. to 300° C. at 10° C./min; nitrogen purge gas flow at 25 mL/min; platinum sample holder.

[2] = water dynamic vapor sorption (DVS) analysis; settings: for water absorbed (DVS): 80% RH and 25° C., sample pre-dried under dried nitrogen for 1 hour (Form I at 50° C., Form IV at 25° C.)
Experimental: (§1) Form I is a non-solvate and non-hydrate crystalline form. On DSC, it first undergoes dehydration at below 125° C. followed by melting at around 148-160° C. […] On TGA, approximately 2.4% weight loss is observed at below 120° C., which is mainly due to dehydration. The compound decomposes above 160° C. after melting. Like the amorphous powder of Compound 1 drug substance, this non-solvate and non-hydrate crystalline form (Form I) is hygroscopic. […] It decomposes above 160° C. after melting. During water dynamic vapor sorption (DVS) analysis of this non-solvate and non-hydrate crystalline form (Form I), approximately 6.5% of water was absorbed at 80% RH and 25° C. for this crystalline form and the sample was pre-dried at 50° C. under dried nitrogen (N2) for 1 hour before the DVS analysis. For comparison, approximately 12% of water was absorbed at 80% RH and 25° C. for the amorphous powder.
(§2) Like the amorphous powder of Compound 1 drug substance, this meta-stable non-solvate crystalline form (Form IV) is hygroscopic. During water dynamic vapor sorption (DVS) analysis of this non-solvate crystalline form (Form IV), approximately 8.2% of water was absorbed at 80% RH and 25° C. for this crystalline form and the sample was pre-dried at 25° C. under dried nitrogen (N2) for 1 hour before the DVS analysis.

[3] = solid state form stability under water, humidity and drying conditions
Experimental: as §1, §2

Compound | decomposition temperature (TGA) [1] | hygroscopicity [2] | water absorbed (DVS) [2] | crystalline form change in the solid state after the DVS analysis [2] | also measured
Cc1c(Nc2nccc3cc(CN4CC[C@@H](O)C4)cnc23)cccc1-c1cccc(-c2nc3cc(CN4CC[C@@H](C(=O)O)C4)cc(C#N)c3o2)c1C [Form IV, (R)-1-((7-cyano-2-(3′-(3-(((R)-3-hydroxypyrrolidin-1-yl)methyl)-1,7-naphthyridin-8-ylamino)-2,2′-dimethylbiphenyl-3-yl)benzo[d]oxazol-5-yl)methyl)pyrrolidine-3-carboxylic acid] | above 140 °C | hygroscopic | approximately 8.2% | No crystalline form change was observed | crystalline form after further drying ([3]; drying on the filter at ambient temperature for 3-6 days, residual THF approximately 0.1 wt %): remained unchanged
Cc1c(Nc2nccc3cc(CN4CC[C@@H](O)C4)cnc23)cccc1-c1cccc(-c2nc3cc(CN4CC[C@@H](C(=O)O)C4)cc(C#N)c3o2)c1C [Form V, (R)-1-((7-cyano-2-(3′-(3-(((R)-3-hydroxypyrrolidin-1-yl)methyl)-1,7-naphthyridin-8-ylamino)-2,2′-dimethylbiphenyl-3-yl)benzo[d]oxazol-5-yl)methyl)pyrrolidine-3-carboxylic acid] | above 160 °C |  |  |  | 
Cc1c(Nc2nccc3cc(CN4CC[C@@H](O)C4)cnc23)cccc1-c1cccc(-c2nc3cc(CN4CC[C@@H](C(=O)O)C4)cc(C#N)c3o2)c1C [amorphous powder, (R)-1-((7-cyano-2-(3′-((3-(((R)-3-hydroxypyrrolidin-1-yl)methyl)-1,7-naphthyridin-8-yl)amino)-2,2′-dimethyl-[1,1′-biphenyl]-3-yl)benzo[d]oxazol-5-yl)methyl)pyrrolidine-3-carboxylic acid] | above 170 °C | hygroscopic | approximately 12% |  | 
Cc1c(Nc2nccc3cc(CN4CC[C@@H](O)C4)cnc23)cccc1-c1cccc(-c2nc3cc(CN4CC[C@@H](C(=O)O)C4)cc(C#N)c3o2)c1C [Form I, (R)-1-((7-cyano-2-(3′-(3-(((R)-3-hydroxypyrrolidin-1-yl)methyl)-1,7-naphthyridin-8-ylamino)-2,2′-dimethylbiphenyl-3-yl)benzo[d]oxazol-5-yl)methyl)pyrrolidine-3-carboxylic acid] | above 160 °C | hygroscopic | approximately 6.5% | No crystalline form change was observed | change in solid state form / hydrate formation ([3]; after stirring in water at ambient temperature for overnight): no change in solid state form; change in solid state form / hydrate formation ([3]; cycling from 5% RH to 95% RH and back to 5% RH at 25° C. and 5% RH interval): no change in solid state form; change in solid state form / hydrate formation ([3]; drying under dry nitrogen gas (N2) at 25° C. for one day): no change in solid state form; change in solid state form / hydrate formation ([3]; humidifying under 95% RH/25° C. for three days): no change in solid state form; thermodynamic stability of the crystalline form ([3]; under the current investigated process conditions): thermodynamically most stable crystalline form
Cc1c(Nc2nccc3cc(CN4CC[C@@H](O)C4)cnc23)cccc1-c1cccc(-c2nc3cc(CN4CC[C@@H](C(=O)O)C4)cc(C#N)c3o2)c1C [Form II, (R)-1-((7-cyano-2-(3′-(3-(((R)-3-hydroxypyrrolidin-1-yl)methyl)-1,7-naphthyridin-8-ylamino)-2,2′-dimethylbiphenyl-3-yl)benzo[d]oxazol-5-yl)methyl)pyrrolidine-3-carboxylic acid] | above 170 °C |  |  |  | 
Cc1c(Nc2nccc3cc(CN4CC[C@@H](O)C4)cnc23)cccc1-c1cccc(-c2nc3cc(CN4CC[C@@H](C(=O)O)C4)cc(C#N)c3o2)c1C [Form III, (R)-1-((7-cyano-2-(3′-(3-(((R)-3-hydroxypyrrolidin-1-yl)methyl)-1,7-naphthyridin-8-ylamino)-2,2′-dimethylbiphenyl-3-yl)benzo[d]oxazol-5-yl)methyl)pyrrolidine-3-carboxylic acid] | above 160 °C |  |  |  | 
